{"source": "paper PMC7673538", "about": "(PLoS Biology, 2020)", "key": {"HRV-A2 [1]": {"system": "HRV-A2", "experiment": "microbe, parasite or virus in culture", "assay_type": "cell-based, human rhinovirus", "conditions": "Human rhinovirus sp., HRVA2, HeLa R19, read-out: EC50 HRV-A2"}, "human DAT": {"target": "T1, human DAT (Homo sapiens, UniProt Q01959)", "T1 construct": "expressed in transfected cells; host or cells: HEK293 (gift of Dr. Hoener, F. Hoffmann-La Roche)", "T1 sequence (Q01959 whole entry)": "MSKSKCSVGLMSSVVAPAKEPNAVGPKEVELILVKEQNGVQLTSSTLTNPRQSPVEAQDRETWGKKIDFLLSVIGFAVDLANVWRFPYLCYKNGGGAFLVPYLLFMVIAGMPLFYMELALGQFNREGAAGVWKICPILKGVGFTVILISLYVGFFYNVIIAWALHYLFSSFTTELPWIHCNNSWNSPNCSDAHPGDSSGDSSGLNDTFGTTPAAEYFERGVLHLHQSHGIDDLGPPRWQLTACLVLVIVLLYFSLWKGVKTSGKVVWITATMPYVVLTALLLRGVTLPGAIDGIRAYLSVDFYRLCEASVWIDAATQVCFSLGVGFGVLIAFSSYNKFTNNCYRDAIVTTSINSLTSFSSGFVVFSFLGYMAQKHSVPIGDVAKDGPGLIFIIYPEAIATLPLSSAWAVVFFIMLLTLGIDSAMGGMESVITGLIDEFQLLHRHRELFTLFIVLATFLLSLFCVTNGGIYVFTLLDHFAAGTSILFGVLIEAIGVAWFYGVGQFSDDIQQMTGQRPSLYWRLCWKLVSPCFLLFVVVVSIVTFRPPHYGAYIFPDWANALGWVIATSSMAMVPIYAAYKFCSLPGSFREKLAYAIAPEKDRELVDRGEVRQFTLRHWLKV", "assay_type": "cell-based", "conditions": "for DAT, Mean (Figure 8B): Control = 100; for DAT, Mean as % (Figure 8B): Control = 100%"}, "human SERT": {"target": "T2, human SERT (Homo sapiens, UniProt P31645)", "T2 construct": "expressed in transfected cells; host or cells: HEK293 (gift of Dr. Hoener, F. Hoffmann-La Roche)", "T2 sequence (P31645 whole entry)": "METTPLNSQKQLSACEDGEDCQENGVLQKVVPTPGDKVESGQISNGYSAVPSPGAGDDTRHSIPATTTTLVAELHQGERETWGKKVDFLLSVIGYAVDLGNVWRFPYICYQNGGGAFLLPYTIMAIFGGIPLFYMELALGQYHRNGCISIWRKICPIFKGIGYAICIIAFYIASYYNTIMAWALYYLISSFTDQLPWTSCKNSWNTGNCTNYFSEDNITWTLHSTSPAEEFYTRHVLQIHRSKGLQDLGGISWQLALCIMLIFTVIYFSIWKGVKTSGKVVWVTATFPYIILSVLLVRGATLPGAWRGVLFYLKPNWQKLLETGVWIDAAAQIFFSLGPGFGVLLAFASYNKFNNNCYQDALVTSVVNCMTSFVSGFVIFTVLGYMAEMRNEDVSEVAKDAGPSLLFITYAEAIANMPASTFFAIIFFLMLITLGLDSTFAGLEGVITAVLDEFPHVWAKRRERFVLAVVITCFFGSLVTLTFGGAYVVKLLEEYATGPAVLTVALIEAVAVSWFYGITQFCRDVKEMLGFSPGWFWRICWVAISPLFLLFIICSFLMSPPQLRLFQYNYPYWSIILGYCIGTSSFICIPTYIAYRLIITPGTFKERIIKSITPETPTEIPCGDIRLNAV", "assay_type": "cell-based", "conditions": "for SERT, Mean (Figure 8B): Control = 100.00; for SERT, Mean as % (Figure 8B): Control = 100%"}, "HRV-B14 [2]": {"system": "HRV-B14", "assay_type": "cell-based, human rhinovirus"}, "HRV-A2 [3]": {"system": "HRV-A2", "assay_type": "cell-based, human rhinovirus"}, "HRV-B14 [4]": {"system": "HRV-B14", "experiment": "microbe, parasite or virus in culture", "assay_type": "cell-based, human rhinovirus", "conditions": "for EC50: Human rhinovirus sp."}, "CV-B3 [5]": {"system": "CV-B3", "experiment": "microbe, parasite or virus in culture", "assay_type": "cell-based, coxsackievirus B3", "conditions": "Enterovirus B"}, "CV-A24 (strain Joseph)": {"system": "CV-A24 (strain Joseph)", "assay_type": "cell-based, coxsackievirus A24"}, "EV-D68": {"system": "EV-D68", "experiment": "microbe, parasite or virus in culture", "assay_type": "cell-based, enterovirus D68", "conditions": "for EC50: Enterovirus D"}, "[6]": {"system": "representative EVs and RVs", "assay_type": "cell-based"}, "CV-B3 [7]": {"system": "CV-B3", "experiment": "microbe, parasite or virus in culture", "assay_type": "cell-based, coxsackievirus B3", "conditions": "Enterovirus B, CVB3, BGM"}, "CV-B3 (strain Nancy)": {"system": "CV-B3 (strain Nancy)", "assay_type": "cell-based, coxsackievirus B3"}}, "note": "Where “and” joins values, the source holds several entries; their conditions need not be identical. Equal entries are not always repeated. Where two headings read alike, the source gives them in different places.", "data": [{"compound": "COc1ccc(N(Cc2ccc(F)cc2)C(=O)c2cc[nH]c2)cc1", "note": "[Compound 12a, N-(4-Fluorobenzyl)-N-(4-methoxyphenyl)-1H-pyrrole-3-carboxamide]", "values": [{"measurement": "EC50", "setting": "HRV-A2 [1]", "value": "8510 ± 220", "unit": "nM"}, {"measurement": "DAT, Mean (Figure 8B)", "setting": "human DAT; 1µM", "value": 80.4016}, {"measurement": "DAT, Mean as % (Figure 8B)", "setting": "human DAT; 1µM", "value": 80, "unit": "%"}, {"measurement": "DAT, Mean (Figure 8B)", "setting": "human DAT; 100µM", "value": 86.9569}, {"measurement": "DAT, Mean as % (Figure 8B)", "setting": "human DAT; 100µM", "value": 87, "unit": "%"}, {"measurement": "inhibition of DAT function (in words)", "setting": "human DAT; HEK293 cells expressing human DAT, 1 μM or 100 μM", "value": "neither 12a, 19b, 19d, nor the combined compound 12b inhibited"}, {"measurement": "SERT, Mean (Figure 8B)", "setting": "human SERT; 1µM", "value": 99.47}, {"measurement": "SERT, Mean as % (Figure 8B)", "setting": "human SERT; 1µM", "value": 99, "unit": "%"}, {"measurement": "SERT, Mean (Figure 8B)", "setting": "human SERT; 100µM", "value": 114.09}, {"measurement": "SERT, Mean as % (Figure 8B)", "setting": "human SERT; 100µM", "value": 114, "unit": "%"}, {"measurement": "inhibition of SERT-mediated uptake (in words)", "setting": "human SERT; HEK293 cells expressing human SERT, 1 and 100 μM", "value": "neither 12a, 19b, 19d, nor the combined compound 12b inhibited"}, {"measurement": "virus titer, TCID50/ml (Figure 2A)", "setting": "HRV-B14 [2]; compound concentration 0.3 µM", "value": "10000000 TCID50/ml and 16982440 TCID50/ml"}, {"measurement": "virus titer, TCID50/ml (Figure 2A)", "setting": "HRV-B14 [2]; compound concentration 3 µM", "value": "10000000 TCID50/ml and 16982440 TCID50/ml"}, {"measurement": "virus titer, TCID50/ml (Figure 2A)", "setting": "HRV-A2 [3]; compound concentration 3 µM", "value": 354813, "unit": "TCID50/ml"}, {"measurement": "virus titer, TCID50/ml (Figure 2A)", "setting": "HRV-A2 [3]; compound concentration 100 µM", "value": "737.962 TCID50/ml and 467.735 TCID50/ml and 500 TCID50/ml"}, {"measurement": "cytotoxicity (in words)", "setting": "HeLa R19 cells", "value": "no cytotoxicity"}, {"measurement": "Figure 7 dose-response raw data, HRV_B14 (triplicate values)", "setting": "HRV-B14 [4]; Concentration 0.0046 µM", "value": "15.2266 and 14.5606"}, {"measurement": "Figure 7 dose-response raw data, HRV_B14 (triplicate values)", "setting": "HRV-B14 [4]; Concentration 0.0412 µM", "value": "11.568 and 20.943 and 17.6535"}, {"measurement": "Figure 7 dose-response raw data, HRV_B14 (triplicate values)", "setting": "HRV-B14 [4]; Concentration 0.3704 µM", "value": "18.8048 and 20.943 and 27.193"}, {"measurement": "Figure 7 dose-response raw data, HRV_B14 (triplicate values)", "setting": "HRV-B14 [4]; Concentration 1.1111 µM", "value": "18.8048 and 20.943 and 27.193"}, {"measurement": "Figure 7 dose-response raw data, HRV_B14 (triplicate values)", "setting": "HRV-B14 [4]; Concentration 3.3333 µM", "value": "94.6272 and 95.7785 and 85.4167"}, {"measurement": "Figure 7 dose-response raw data, HRV_B14 (triplicate values)", "setting": "HRV-B14 [4]; Concentration 11.1111 µM", "value": "94.6272 and 95.7785 and 85.4167"}, {"measurement": "Figure 7 dose-response raw data, HRV_B14 (triplicate values)", "setting": "HRV-B14 [4]; Concentration 33.3333 µM", "value": "98.3946 and 104.147 and 102.94"}, {"measurement": "Figure 7 dose-response raw data, HRV_B14 (triplicate values)", "setting": "HRV-B14 [4]; Concentration 100 µM", "value": "89.5652 and 94.1472 and 100.034"}, {"measurement": "EC50", "setting": "HRV-B14 [4]; HRVB14, HeLa R19, read-out: EC50 Exp1", "value": 1660, "unit": "nM"}, {"measurement": "EC50", "setting": "HRV-B14 [4]; HRVB14, HeLa R19, read-out: EC50 HRV-B14", "value": "1450 ± 210", "unit": "nM"}, {"measurement": "EC50", "setting": "CV-B3 [5]; CVB3, HAP1", "value": "20 ± 20", "unit": "nM"}, {"measurement": "EC50", "setting": "CV-B3 [5]; CVB3, HAP1, read-out: EC50 Hap1 Average", "value": 23, "unit": "nM"}, {"measurement": "EC50", "setting": "CV-B3 [5]; CVB3, HAP1, read-out: Exp 1 EC50 Hap1", "value": 40, "unit": "nM"}, {"measurement": "EC50", "setting": "CV-B3 [5]; CVB3, HAP1, read-out: Exp 2 EC50 Hap1", "value": 6, "unit": "nM"}, {"measurement": "virus titer, TCID50/ml (Figure 2A)", "setting": "CV-A24 (strain Joseph); compound concentration 0.1 µM", "value": "469824 TCID50/ml and 562341 TCID50/ml and 300000 TCID50/ml"}, {"measurement": "virus titer, TCID50/ml (Figure 2A)", "setting": "CV-A24 (strain Joseph); compound concentration 1 µM", "value": "169824 TCID50/ml and 316228 TCID50/ml"}, {"measurement": "virus titer, TCID50/ml (Figure 2A)", "setting": "CV-A24 (strain Joseph); compound concentration 100 µM", "value": 316.228, "unit": "TCID50/ml"}, {"measurement": "cross-resistance of 19d-resistant EV-D68 virus pools (in words)", "setting": "EV-D68", "value": "cross-resistance"}, {"measurement": "Figure 7 dose-response raw data, EV-D68 (triplicate values)", "setting": "EV-D68; Concentration 0.001 µM", "value": "11.1333 and 12.4782 and 12.9265"}, {"measurement": "Figure 7 dose-response raw data, EV-D68 (triplicate values)", "setting": "EV-D68; Concentration 0.0137 µM", "value": "9.388 and 8.898 and 11.4747"}, {"measurement": "Figure 7 dose-response raw data, EV-D68 (triplicate values)", "setting": "EV-D68; Concentration 0.0412 µM", "value": "11.1333 and 12.4782 and 12.9265"}, {"measurement": "Figure 7 dose-response raw data, EV-D68 (triplicate values)", "setting": "EV-D68; Concentration 0.1235 µM", "value": "10.386 and 11.4321 and 12.9265"}, {"measurement": "Figure 7 dose-response raw data, EV-D68 (triplicate values)", "setting": "EV-D68; Concentration 0.3704 µM", "value": "8.529 and 8.161 and 15.8928"}, {"measurement": "Figure 7 dose-response raw data, EV-D68 (triplicate values)", "setting": "EV-D68; Concentration 1.1111 µM", "value": "91.9917 and 94.6194 and 110.886"}, {"measurement": "Figure 7 dose-response raw data, EV-D68 (triplicate values)", "setting": "EV-D68; Concentration 3.3333 µM", "value": "101.502 and 102.252 and 110.761"}, {"measurement": "Figure 7 dose-response raw data, EV-D68 (triplicate values)", "setting": "EV-D68; Concentration 10 µM", "value": "100.876 and 104.38 and 113.014"}, {"measurement": "EC50", "setting": "EV-D68; EVD68, HeLa R19, […], read-out: EC50 Exp1", "value": 3040, "unit": "nM"}, {"measurement": "EC50", "setting": "EV-D68; EVD68, HeLa R19, read-out: EC50 Average", "value": 1250, "unit": "nM"}, {"measurement": "EC50", "setting": "EV-D68; EVD68, HeLa R19, read-out: EC50 EV-D68", "value": "1080 ± 200", "unit": "nM"}, {"measurement": "EC50", "setting": "EV-D68; EVD68, HeLa R19, read-out: EC50 EV-D68 strain 4310900947", "value": "1840 ± 400", "unit": "nM"}, {"measurement": "EC50", "setting": "EV-D68; EVD68, HeLa R19, read-out: EC50 EV-D68 strain 4310901348", "value": "2720 ± 960", "unit": "nM"}, {"measurement": "EC50", "setting": "EV-D68; EVD68, HeLa R19, read-out: EC50 EV-D68 strain 4310902042", "value": "1440 ± 230", "unit": "nM"}, {"measurement": "EC50", "setting": "EV-D68; EVD68, HeLa R19, read-out: EC50 EV-D68 strain 4310902284", "value": "2310 ± 820", "unit": "nM"}, {"measurement": "EC50", "setting": "EV-D68; EVD68, HeLa R19, read-out: EC50 EV-D68 strain 4311000742", "value": "1860 ± 160", "unit": "nM"}, {"measurement": "EC50", "setting": "EV-D68; EVD68, HeLa R19, read-out: EC50 EV-D68 strain Fermon", "value": "1230 ± 160", "unit": "nM"}, {"measurement": "EC50", "setting": "EV-D68; EVD68 / genotype 2c, HeLa R19, read-out: EC50 EV-D68 WT", "value": "1250 ± 90", "unit": "nM"}, {"measurement": "inhibition of contemporary/clinical isolates of EV-A71, CV-A24v and EV-D68 (in words)", "setting": "[6]", "value": "inhibited all clinical isolates of EV-A71, CV-A24v, and EV-D68 tested"}, {"measurement": "spectrum of antiviral activity (in words)", "setting": "[6]", "value": "inhibited all representative EVs and RVs"}, {"measurement": "EC50", "setting": "CV-B3 [7]", "value": "40 ± 20", "unit": "nM"}, {"measurement": "EC50", "setting": "CV-B3 [7]; read-out: EC50 BGM Average", "value": 35, "unit": "nM"}, {"measurement": "EC50", "setting": "CV-B3 [7]; read-out: Exp 1 EC50 BGM", "value": 20, "unit": "nM"}, {"measurement": "EC50", "setting": "CV-B3 [7]; read-out: Exp 2 EC50 BGM", "value": 50, "unit": "nM"}, {"measurement": "virus titer, TCID50/ml (Figure 2A)", "setting": "CV-B3 (strain Nancy); compound concentration 0.001 µM", "value": "316227800 TCID50/ml and 467735100 TCID50/ml"}, {"measurement": "virus titer, TCID50/ml (Figure 2A)", "setting": "CV-B3 (strain Nancy); compound concentration 0.01 µM", "value": "467735100 TCID50/ml and 316227800 TCID50/ml"}]}]}
